PubChem BioAssay AID1996
Values after ≈ are worked out from the molar mass of the structure shown.

Settings: buffer; pH 7.4; 200.0 µM

Structure (SMILES) | solubility kinetic [µg/mL]
CC1(C)C(=O)OC(/C=C/c2cccc([N+](=O)[O-])c2)C(C)(C)C1=O (stereo not given) | 2.7 (≈ 8.51 µM)
CCN(CC)CCCN(C(=O)c1ccc(F)cc1)c1nc(-c2ccc(OC)cc2)cs1 | 62.1 (≈ 141 µM)
CC(NC(=O)C1CC1)C(c1cccs1)N1CCOCC1 (stereo not given) | > 44.2
CC(NC(=O)COc1cccnc1[N+](=O)[O-])c1ccc(Cl)cc1 (stereo not given) | > 50.4
CCOc1ccc2oc(C(=O)NC(C)(C)CC)c(C)c2c1 | 11.5 (≈ 39.7 µM)
Cc1cc(=O)oc2cc(NC(=O)c3cccc(S(C)(=O)=O)c3)ccc12 | 3.5 (≈ 9.79 µM)
O=C(NCc1ccco1)c1ccc2[nH]c(=O)c(=O)[nH]c2c1 | > 42.8
COc1ccc(/C=C/C(=O)NCCCN2CCCCCC2)cc1 | > 47.5
COCC(=O)Nc1ccc(OC)c(Cl)c1 | 33.8 (≈ 147 µM)
COCCNS(=O)(=O)c1cc(OC)ccc1OC | > 41.3
Cc1ccc2[nH]c(C)c(CCNCc3ccco3)c2c1.Cl | 42.9
COc1ccc2oc(C(=O)OCC(=O)N3C(C)CCCC3C)c(C)c2c1 (stereo not given) | 31.9 (≈ 88.8 µM)
COc1ccc(/C=C(\C#N)C(=O)ONC2=NCCCCC2)cc1 | 42.8 (≈ 137 µM)
COc1cc(N)c(Cl)cc1C(=O)OCC(=O)NCC1CCCCC1 | 4.8 (≈ 13.5 µM)
CC(C)(C)C(=O)Nc1cc2c3c(c1)CC(=O)N3CCC2 | 35.9 (≈ 132 µM)
Cl.NS(=O)(=O)c1ccc(CCNCc2cccnc2)cc1 | 40.5
CCOC(=O)c1c(C)[nH]c(C)c1S(=O)(=O)N1CCOCC1 | > 47.5
CCOc1cc2c(C#N)c(N3CCNCC3)nc(N)c2c(N)n1 | 1.3 (≈ 4.15 µM)
Cl.Clc1cc(I)cc(Cl)c1NC1=NCCN1 | > 58.9
CCN1C(=O)CC(NNC(=O)c2ccccc2)C1=O (stereo not given) | > 39.2
CC1CC(CN)CC(CO)C1 (stereo not given) | > 23.6
Cn1c(NN)nc2ccccc2c1=O | > 28.5
CC(=O)Cn1cnc2c(sc3nc(C)cc(C)c32)c1=O | 7.2 (≈ 25.1 µM)
Cc1nc(N)nc(N)c1CCCc1ccc(Cl)c(Cl)c1 | > 46.7
CC1CC(C)CN(C(=O)CNS(=O)(=O)c2cccs2)C1 (stereo not given) | 17.6 (≈ 55.6 µM)

Structure (SMILES) | solubility kinetic [µg/mL]
CCOC(=O)C1CCN(C(=O)Nc2cccc(OC)c2)CC1 | > 46
O=C(O)CCCC(=O)Nc1cc([N+](=O)[O-])ccc1O | 35.8 (≈ 133 µM)
COc1ccc(C(=O)NCc2ccc3[nH]c(C)cc3c2)cc1OC | 23.5 (≈ 72.4 µM)
O=C(NC(=S)Nc1cccc(Cl)c1Cl)C1CC1 | 0.8 (≈ 2.77 µM)
Cn1ncc(Cl)c1C(=O)NC1CCCC1 | > 34.2
O=C(COC(=O)/C=C/c1cccc(F)c1)Nc1ncccn1 | 27.7 (≈ 91.9 µM)
O=[N+]([O-])c1c(Nc2ccc(Br)cc2)ccc2nonc12 | < 0.2
CCCC(=O)Nc1ccc(-c2csc(-c3cccnc3)n2)cc1 | 0.7 (≈ 2.16 µM)
O=C(OCc1cnc(Cl)s1)c1c(F)cccc1F | 21.5 (≈ 74.2 µM)
Cn1ncc([N+](=O)[O-])c1C(=O)Nc1ccccc1Cl | > 42.1
CCN(CC(=O)Nc1cc(Cl)cc(Cl)c1)CC(=O)NC1CCS(=O)(=O)C1 (stereo not given) | 52.3 (≈ 124 µM)
Cn1cccc1CNC(=S)Nc1cc(F)cc(F)c1 | > 42.2
C/C(N)=C(/C#N)C(=O)COC(=O)c1ccc(OCC2CCCO2)cc1 (stereo not given) | 51.5 (≈ 150 µM)
COC(=O)CSc1nc(N)c(C#N)c(-c2ccc(O)cc2)c1C#N | 0.6 (≈ 1.76 µM)
CCNc1nc2c(c(=O)n(C)c(=O)n2C)n1CCCc1ccccc1 | 38.2 (≈ 112 µM)
CNC(=O)CSc1nc(SC)ns1 | > 35.3
CCCn1c(N)c(C(=O)COC(=O)/C=C/c2ccc(OC(F)F)c(OC)c2)c(=O)[nH]c1=O | 9 (≈ 19.9 µM)
C/C(=N\OC(=O)Nc1ccc(Cl)cc1)c1ccc(F)c(F)c1 | 5.2 (≈ 16 µM)
CSc1nc(C)nc(N/C=C(\C#N)S(=O)(=O)c2ccccc2Cl)n1 | 15.6 (≈ 40.9 µM)
N#Cc1c(-c2cccc(Cl)c2)[nH]c(=S)[nH]c1=O | > 39.6
CCOc1ccc2nc(N(CCN(C)C)C(=O)/C=C/c3cccs3)sc2c1.Cl | < 0.3
CCCCOc1ccc(C(=O)N=c2sccn2C)cc1OC | 35.7 (≈ 111 µM)
Cc1nc([N+](=O)[O-])cn1CC(=O)c1ccc(Cl)cc1 | 3.7 (≈ 13.2 µM)
Cc1ccc(C(=O)OCC(=O)NC2CCCCCC2)c(C)c1 | 4.6 (≈ 15.2 µM)

Continued, values first:

solubility kinetic [µg/mL] | Structure (SMILES)
25.8 (≈ 67.1 µM) | CC(C)C(NC(=O)c1ccc(F)cc1)C(=O)N1CCN(c2ccccn2)CC1 (stereo not given)
> 88.5 | O=C(O)c1ccccc1NS(=O)(=O)c1cccc(NS(=O)(=O)c2cc(Br)ccc2Br)c1
44.2 (≈ 141 µM) | COc1cccc(OC)c1C(=O)NC(C)CCc1ccccc1 (stereo not given)
20.2 (≈ 82.9 µM) | N#Cc1c(NCc2ccccc2)ccnc1Cl
28.5 (≈ 111 µM) | Cc1ccccc1C(=O)NC(C)C1CC2CCC1C2 (stereo not given)
2.3 (≈ 6.54 µM) | O=C(Nc1ccc(C(=O)Nc2ccccc2Cl)cc1)c1cccnc1
42.2 (≈ 136 µM) | COc1ccccc1OCCNC(=O)c1ccc2c(c1)CCC2
< 0.7 | COc1ccc(OC)c(/C=C/c2ccc3cccc(O)c3n2)c1
> 30.4 | Clc1nc2c(ccc3ccccc32)[nH]1
> 59 | CC(NC(=O)CN1CCN(C(=O)c2cccs2)CC1)c1ccc(F)cc1F (stereo not given)
5.1 (≈ 14.2 µM) | Oc1ccccc1C(=S)N1CCN(C(=S)c2ccccc2O)CC1
8.9 (≈ 28.8 µM) | O=C(COc1ccccc1)OCC(=O)c1c[nH]c2ccccc12
1.2 (≈ 3 µM) | COc1cc(C(=O)OCC(=O)NCCCc2ccccc2)ccc1OCC(C)C
> 50.6 | O=C(c1c(Cl)cccc1Cl)N1CCN(c2ncccn2)CC1
> 28.5 | CN1CC(=O)Nc2ccccc2C1=O
> 46.6 | COc1ccccc1CNC1CCN(Cc2ccccc2)CC1
3.6 (≈ 10.5 µM) | Cc1nc(N/C(N)=N/S(=O)(=O)c2ccccc2)nc2ccccc12
> 46.7 | NC(=O)CSc1nc2ccccc2c(=O)n1-c1ccccc1

solubility kinetic [µg/mL] | Structure (SMILES)
55.3 (≈ 148 µM) | O=C(CN1C(=O)CCS(=O)(=O)c2ccccc21)NCCc1ccccc1
4.4 (≈ 14.2 µM) | CC1CC(C)CN(C(=O)C(Cc2ccccc2)n2cccc2)C1 (stereo not given)
> 37.1 | Fc1cccc(NC(=S)Nc2cccnc2)c1
6.3 (≈ 19.9 µM) | O=C(COC(=O)c1ccc2c(c1)OCO2)Nc1ccccc1F
< 0.3 | COc1ccc(NC(=O)c2cc3ccc(O)cc3o/c2=N\O)cc1
52.6 (≈ 147 µM) | O=C(Nc1scc(-c2ccccc2)c1C(=O)O)c1ccccc1Cl
< 0.4 | CCOc1ccccc1NC(=O)c1oc2ccccc2c1NC(=O)C1CCCO1 (stereo not given)
51.8 (≈ 137 µM) | COc1ccc2[nH]c(C(=O)N3CCN(Cc4ccccc4)CC3)cc2c1OC
> 48.2 | CCC1CCCCN1C(=S)NC(=O)c1cccc([N+](=O)[O-])c1 (stereo not given)
3.3 (≈ 8.37 µM) | O=C(c1ccc(F)cc1)N1CCN(c2ccc([N+](=O)[O-])cc2-n2cccc2)CC1
< 0.4 | Cc1nc(-c2ccccc2)[nH]c(=O)c1Oc1ccc(Cl)cc1Cl
48.4 (≈ 145 µM) | CCOC(=O)N1CCN(S(=O)(=O)c2ccc(Cl)cc2)CC1
> 34 | N=C1SCC(=O)N1c1ccccc1Cl
37.7 (≈ 124 µM) | c1ccc(CN2CCN(c3cnc4ccccc4n3)CC2)cc1
53.4 (≈ 142 µM) | O=C(OCC(=O)N1CCOCC1)c1cc(-c2ccccc2)nc2ccccc12
33 (≈ 108 µM) | COc1ccccc1NC(=S)NCc1ccc(Cl)cc1
> 52.9 | CC1CCCCN1S(=O)(=O)c1ccc(C(=O)N2CCOCC2)cc1 (stereo not given)
> 51.4 | COc1ccc(C)cc1NC(=O)C1CCN(C(=O)c2ccco2)CC1
